Results reported in ChEMBL document CHEMBL1145498, “A systematic interaction map of validated kinase inhibitors with Ser/Thr kinases” (Proc Natl Acad Sci U S A, 2007).
Activity calls are given as the source filed them. The rule behind the calls is not given here.

How the values were obtained:
[1] = molecular target: Bcl2-associated agonist of cell death (Homo sapiens) (UniProt Q92934); assay: Reduction of BAD phosphorylation in human MV4-11 cells at 1 uM by Western blot; assay type: functional, cell-based
Chain of Bcl2-associated agonist of cell death (Homo sapiens) (Q92934 whole entry): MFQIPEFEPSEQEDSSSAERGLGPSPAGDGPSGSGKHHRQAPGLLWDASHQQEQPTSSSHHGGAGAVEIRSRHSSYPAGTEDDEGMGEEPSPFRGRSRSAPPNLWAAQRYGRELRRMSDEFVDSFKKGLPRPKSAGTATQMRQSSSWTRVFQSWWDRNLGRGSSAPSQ

[2] = Bioavailability in mouse at 20 mg/kg, ip; assay type: ADME, organism-based; conditions: in vivo

Row | bioavailability [2] | SMILES | Activity [1]
1 |  | CN(C)C[C@@H]1CCn2cc(c3ccccc32)C2=C(C(=O)NC2=O)c2cn(c3ccccc23)CCO1 [RUBOXISTAURIN] | Active
2 | 20% | O=c1cc(N2CCOCC2)oc2c1ccc1ccccc12 | 
